Assay results published in patent US20180099931A1 (AbbVie S.à.r.l., priority 2016, published 2018).
Like-named read-outs stand apart in the source and are kept apart here.

Molecular target: T1, F508delCFTR (Homo sapiens, UniProt P13569, DEL508-508)
T1 construct: expressed in transfected cells; host or cells: CFBE41o- human lung-derived epithelial cells (CFBE4lo-F508delCFTR-HRP), doxycycline-inducible
Experiment: Cell Surface Expression-Horse Radish Peroxidase (CSE-HRP) Assay;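 as to Maximum % activity (with co-corrector): co-corrector and positive control are both the same reference corrector at 2 µM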;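 as to Maximum % activity (without co-corrector): percent of the 2 µM on-plate positive control corrector response above DMSO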
Format: cell-based
Conditions: for Emax: read-out: Maximum % activity (without co-corrector)

[1] = test compound without co-corrector, read-out: EC50 (without co-corrector)
[2] = with co-corrector (2 μM of 3-[(2R,4R)-4-({[1-(2,2-difluoro-1,3-benzodioxol-5-yl)cyclopropyl]carbonyl}amino)-7-methoxy-3,4-dihydro-2H-chromen-2-yl]benzoic acid), read-out: EC50 (with co-corrector)
[3] = with co-corrector (2 μM), maximum at any tested concentration, normalized to on-plate positive control
[4] = without co-corrector, maximum at any tested concentration, normalized to on-plate positive control
[5] = CSE-HRP, test compound without co-corrector, read-out: EC50 (without co-corrector)
[6] = CSE-HRP, with co-corrector (2 μM of 3-[(2R,4R)-4-({[1-(2,2-difluoro-1,3-benzodioxol-5-yl)cyclopropyl]carbonyl}amino)-7-methoxy-3,4-dihydro-2H-chromen-2-yl]benzoic acid), read-out: EC50 (with co-corrector)
[7] = CSE-HRP, with co-corrector (2 μM), maximum at any tested concentration, normalized to on-plate positive control
[8] = CSE-HRP, without co-corrector, maximum at any tested concentration, normalized to on-plate positive control
[9] = test compound without co-corrector, maximum at any tested concentration, normalized to on-plate positive control
[10] = with co-corrector (2 μM of 3-[(2R,4R)-4-({[1-(2,2-difluoro-1,3-benzodioxol-5-yl)cyclopropyl]carbonyl}amino)-7-methoxy-3,4-dihydro-2H-chromen-2-yl]benzoic acid), maximum at any tested concentration, normalized to on-plate positive control

T1 sequence (P13569 with tags, fused parts or gaps DEL508-508): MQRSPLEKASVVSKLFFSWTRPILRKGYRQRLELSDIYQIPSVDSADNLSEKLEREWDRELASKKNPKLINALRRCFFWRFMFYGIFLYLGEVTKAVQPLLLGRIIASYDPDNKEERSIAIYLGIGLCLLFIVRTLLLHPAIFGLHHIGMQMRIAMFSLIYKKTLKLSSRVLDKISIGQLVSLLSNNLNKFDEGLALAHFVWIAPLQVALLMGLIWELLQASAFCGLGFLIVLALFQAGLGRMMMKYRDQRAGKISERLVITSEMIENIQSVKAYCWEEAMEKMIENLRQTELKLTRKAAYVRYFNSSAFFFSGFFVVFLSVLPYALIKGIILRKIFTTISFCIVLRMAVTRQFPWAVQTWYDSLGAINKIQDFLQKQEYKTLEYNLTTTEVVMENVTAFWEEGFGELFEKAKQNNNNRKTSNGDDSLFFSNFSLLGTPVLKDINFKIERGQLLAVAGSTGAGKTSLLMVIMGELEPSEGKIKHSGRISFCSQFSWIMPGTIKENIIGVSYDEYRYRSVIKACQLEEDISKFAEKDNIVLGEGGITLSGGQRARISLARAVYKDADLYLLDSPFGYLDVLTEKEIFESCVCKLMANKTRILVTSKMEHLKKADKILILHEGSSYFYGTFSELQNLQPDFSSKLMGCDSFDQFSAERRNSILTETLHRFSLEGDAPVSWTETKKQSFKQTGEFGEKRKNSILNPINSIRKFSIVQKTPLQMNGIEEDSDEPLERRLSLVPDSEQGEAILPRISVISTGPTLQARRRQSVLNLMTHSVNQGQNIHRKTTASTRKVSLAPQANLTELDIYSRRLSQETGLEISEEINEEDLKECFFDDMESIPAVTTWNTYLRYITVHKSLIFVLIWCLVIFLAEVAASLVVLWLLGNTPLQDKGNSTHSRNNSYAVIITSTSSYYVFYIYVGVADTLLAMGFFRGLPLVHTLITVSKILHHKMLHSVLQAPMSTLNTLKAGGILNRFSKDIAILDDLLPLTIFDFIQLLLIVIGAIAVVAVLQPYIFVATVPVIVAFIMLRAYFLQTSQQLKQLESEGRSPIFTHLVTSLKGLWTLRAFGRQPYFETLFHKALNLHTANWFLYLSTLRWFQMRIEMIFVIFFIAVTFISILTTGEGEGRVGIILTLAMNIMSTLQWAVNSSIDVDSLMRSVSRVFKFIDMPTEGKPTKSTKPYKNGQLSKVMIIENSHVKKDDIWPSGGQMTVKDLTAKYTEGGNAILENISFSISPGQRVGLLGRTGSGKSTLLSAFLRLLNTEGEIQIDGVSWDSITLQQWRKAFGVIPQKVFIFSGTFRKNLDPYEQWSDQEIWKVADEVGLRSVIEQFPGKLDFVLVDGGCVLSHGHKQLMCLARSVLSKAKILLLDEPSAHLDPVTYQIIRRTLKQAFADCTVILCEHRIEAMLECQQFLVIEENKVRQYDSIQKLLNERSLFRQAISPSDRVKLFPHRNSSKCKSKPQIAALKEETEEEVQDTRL

SMILES: COc1nc(C(C)(C)C)ccc1CN[C@H]1[C@H](C(C)(C)C)[C@@H](C(=O)O)N(C(=O)[C@@H]2CCC[C@H](OC)C2)[C@H]1c1ccccc1 (relative stereo) [Example I-198]
- EC50 [1]: 1000 to 10000 nM
- EC50 [2]: 1000 to 10000 nM
- Maximum % activity (with co-corrector) [3]: +++ (≥350)
- Emax [4]: < 100%

SMILES: COC(=O)[C@H](C)Cc1cnc(OC)c(CN[C@H]2[C@H](C(C)(C)C)[C@@H](C(=O)O)N(C(=O)C3CCCCC3)[C@H]2c2ccccc2)c1 [II-159]
- EC50 [5]: 1000 to 10000 nM
- EC50 [6]: 1000 to 10000 nM
- Maximum % activity (with co-corrector) [7]: ++ (≥150 and <350)
- Emax [8]: < 100%

SMILES: COc1ccc(-c2ccnnc2)cc1CN[C@H]1[C@H](C(C)(C)C)[C@@H](C(=O)O)N(C(=O)C2CCCCC2)[C@H]1c1ccccc1 [Example I-125]
- EC50 [1]: > 10000 nM
- EC50 [2]: > 10000 nM
- Maximum % activity (with co-corrector) [3]: + (<150)
- Emax [4]: < 100%

SMILES: COc1ccc(-c2ccc(C#N)cc2)cc1CN[C@H]1[C@H](C(C)(C)C)[C@@H](C(=O)O)N(C(=O)C2CCCCC2)[C@H]1c1ccccc1 [II-289]
- EC50 [5]: < 1000 nM
- EC50 [6]: 1000 to 10000 nM
- Maximum % activity (with co-corrector) [7]: +++ (≥350)
- Emax [8]: < 100%

SMILES: COc1ccc(C(C)(C)C)cc1CN[C@H]1[C@H](C(C)(C)OC)[C@@H](C(=O)O)N(C(=O)C2CCCCC2)[C@H]1c1ccccc1OC [II-294]
- EC50 [5]: 1000 to 10000 nM
- EC50 [6]: 1000 to 10000 nM
- Maximum % activity (with co-corrector) [7]: +++ (≥350)
- Emax [8]: > 200%

SMILES: COc1ccc(C(C)(C)C)cc1CN[C@H]1[C@H](C23CC(C2)C3)[C@@H](C(=O)O)N(C(=O)OC(C)C)[C@H]1c1cccnc1OC [Example 76, (2S,3S,4S,5S)-3-(bicyclo[1.1.1]pentan-1-yl)-4-{[(5-tert-butyl-2-methoxyphenyl)methyl]amino}-5-(2-methoxypyridin-3-yl)-1-{[(propan-2-yl)oxy]carbonyl}pyrrolidine-2-carboxylic acid]
- EC50 [1]: 1000 to 10000 nM
- EC50 [2]: 1000 to 10000 nM
- Maximum % activity (with co-corrector) [3]: +++ (≥350)
- Emax [4]: 100 to 200%

SMILES: COc1ncc(-c2cccnc2C)cc1CN[C@H]1[C@H](C(C)(C)C)[C@@H](C(=O)O)N(C(=O)C2CCCCC2)[C@H]1c1ccccc1 [II-348]
- Emax [9]: < 100%
- EC50 [1]: 1000 to 10000 nM
- Maximum % activity (with co-corrector) [10]: +++ (≥350)
- EC50 [2]: 1000 to 10000 nM

SMILES: COc1ncc(C2CCC2)cc1CN[C@H]1[C@H](C(C)(C)C)[C@@H](C(=O)O)N(C(=O)[C@H]2CCC[C@@H](C(F)(F)F)C2)[C@H]1c1ccccc1 (relative stereo) [Example I-260]
- EC50 [5]: 1000 to 10000 nM
- EC50 [6]: 1000 to 10000 nM
- Maximum % activity (with co-corrector) [7]: ++ (≥150 and <350)
- Emax [8]: < 100%

SMILES: COc1ccc(C(C)(C)C)cc1CN[C@H]1[C@H](C(C)(C)C)[C@@H](C(=O)O)N(C(=O)[C@H]2C[C@@H]3CC[C@H]2O3)[C@H]1c1ccccc1 [II-543]
- Emax [9]: > 200%
- EC50 [1]: 1000 to 10000 nM
- Maximum % activity (with co-corrector) [10]: +++ (≥350)
- EC50 [2]: 1000 to 10000 nM

SMILES: COc1ccc(C(C)(C)C)cc1CN[C@H]1[C@H](C(C)(C)C)[C@@H](C(=O)O)N(C(=O)c2cn(C)c3ccccc23)[C@H]1c1ccccc1 [III-177]
- Emax [9]: < 100%
- EC50 [1]: 1000 to 10000 nM
- EC50 [2]: 1000 to 10000 nM
- Maximum % activity (with co-corrector) [3]: ++ (≥150 and <350)

SMILES: COc1ccc(Br)nc1CN[C@H]1[C@H](C(C)(C)C)[C@@H](C(=O)O)N(C(=O)C2CCCCC2)[C@H]1c1ccccc1 [Example I-134]
- EC50 [1]: 1000 to 10000 nM
- EC50 [2]: 1000 to 10000 nM
- Maximum % activity (with co-corrector) [3]: +++ (≥350)
- Emax [4]: 100 to 200%

SMILES: C=CCCOC(=O)N1[C@H](C(=O)O)[C@@H](C(C)(C)C)[C@H](NCc2cc(C(C)(C)C)ccc2OC)[C@@H]1c1ccccc1 [II-387]
- Emax [9]: > 200%
- EC50 [1]: 1000 to 10000 nM
- Maximum % activity (with co-corrector) [10]: +++ (≥350)
- EC50 [2]: 1000 to 10000 nM

SMILES: COc1ccc(C(C)(C)C)cc1CN[C@H]1[C@H](C(C)(C)C)[C@@H](C(=O)O)N(C(=O)C2COc3c(cccc3OC)C2)[C@H]1c1ccccc1 (some centres unmarked) [II-402]
- Emax [9]: > 200%
- EC50 [1]: 1000 to 10000 nM
- Maximum % activity (with co-corrector) [10]: +++ (≥350)
- EC50 [2]: < 1000 nM

SMILES: COc1ccc(C(C)(C)C#N)cc1CN[C@H]1[C@H](C(C)(C)C)[C@@H](C(=O)O)N(C(=O)C2CCCCC2)[C@H]1c1ccccc1 [Example I-88]
- EC50 [1]: 1000 to 10000 nM
- EC50 [2]: 1000 to 10000 nM
- Maximum % activity (with co-corrector) [3]: +++ (≥350)
- Emax [4]: 100 to 200%

SMILES: COc1ncc(C(F)(F)F)cc1CN[C@H]1[C@H](C23CC(C2)C3)[C@@H](C(=O)O)N(C(=O)OC(C)C)[C@H]1c1ccccc1 [III-221]
- Emax [9]: 100 to 200%
- EC50 [1]: 1000 to 10000 nM
- EC50 [2]: 1000 to 10000 nM
- Maximum % activity (with co-corrector) [3]: +++ (≥350)

SMILES: COc1ccc(C2(C(F)(F)F)CC2)cc1CN[C@H]1[C@H](C(C)(C)C)[C@@H](C(=O)O)N(C(=O)OC(C)C)[C@H]1c1cccnc1N(C)C [II-559]
- Emax [9]: > 200%
- EC50 [1]: 1000 to 10000 nM
- Maximum % activity (with co-corrector) [10]: +++ (≥350)
- EC50 [2]: 1000 to 10000 nM

SMILES: COc1ccc(C(F)(F)F)cc1CN[C@H]1[C@H](C(C)(C)C)[C@@H](C(=O)O)N(C(=O)C2CC3CC3C2)[C@H]1c1ccccc1 (some centres unmarked) [Example I-162]
- EC50 [1]: 1000 to 10000 nM
- EC50 [2]: 1000 to 10000 nM
- Maximum % activity (with co-corrector) [3]: +++ (≥350)
- Emax [4]: 100 to 200%

SMILES: COc1ncc(C(F)(F)F)cc1N[C@@H]1[C@@H](C(C)(C)C)[C@H](C(=O)O)N(C(=O)C2CCCCC2)[C@@H]1c1ccccc1 (racemic) [Example I-15]
- EC50 [1]: < 1000 nM
- EC50 [2]: < 1000 nM
- Maximum % activity (with co-corrector) [3]: +++ (≥350)
- Emax [4]: < 100%

SMILES: COc1ncccc1NC1CC(N[C@H]2[C@H](C(C)(C)C)[C@@H](C(=O)O)N(C(=O)OC(C)C)[C@H]2c2ccccc2C2CC2)C1 (some centres unmarked) [Example I-276]
- EC50 [5]: 1000 to 10000 nM
- EC50 [6]: 1000 to 10000 nM
- Maximum % activity (with co-corrector) [7]: +++ (≥350)
- Emax [8]: 100 to 200%

SMILES: COc1ccc(-c2ccccc2)cc1CN[C@H]1[C@H](C(C)(C)C)[C@@H](C(=O)O)N(C(=O)[C@@H]2CCCCO2)[C@H]1c1cccnc1N(C)C [II-450]
- Emax [9]: > 200%
- EC50 [1]: 1000 to 10000 nM
- Maximum % activity (with co-corrector) [10]: +++ (≥350)
- EC50 [2]: < 1000 nM

SMILES: CCC(C)c1cnc(OC)c(CN[C@H]2[C@H](C(C)(C)C)[C@@H](C(=O)O)N(C(=O)C3CCCCC3)[C@H]2c2ccccc2)c1 (some centres unmarked) [Example I-70]
- EC50 [1]: 1000 to 10000 nM
- EC50 [2]: < 1000 nM
- Maximum % activity (with co-corrector) [3]: +++ (≥350)
- Emax [4]: > 200%

SMILES: COc1ccc(C(C)(C)C)cc1CN[C@H]1[C@H](C(C)(C)C)[C@@H](C(=O)O)N(C(=O)Oc2ccccc2)[C@H]1c1ccccc1 [Example I-153]
- EC50: < 1000 nM
- EC50 (EC50 (without co-corrector), test compound without co-corrector): 1000 to 10000 nM
- Emax: > 200%
- Maximum % activity (with co-corrector) [3]: +++ (≥350)

SMILES: COc1ncc(C2CCC2)cc1CN[C@H]1[C@H](C(C)(C)C)[C@@H](C(=O)O)N(C(=O)C2COc3ccccc3O2)[C@H]1c1ccccc1 (relative stereo) [Example I-205]
- EC50 [1]: 1000 to 10000 nM
- EC50 [2]: 1000 to 10000 nM
- Maximum % activity (with co-corrector) [3]: ++ (≥150 and <350)
- Emax [4]: < 100%

SMILES: COCc1cc(C)nc(N[C@H]2[C@H](C(C)(C)C)[C@@H](C(=O)O)N(C(=O)C3CCCCC3)[C@H]2c2ccccc2)c1C#N [II-147]
- EC50 [5]: 1000 to 10000 nM
- EC50 [6]: 1000 to 10000 nM
- Maximum % activity (with co-corrector) [7]: ++ (≥150 and <350)
- Emax [8]: < 100%

SMILES: COc1ccc(C(F)(F)F)nc1CN[C@H]1[C@H](C(C)(C)C)[C@@H](C(=O)O)N(C(=O)C2CCCCC2)[C@H]1c1ccccc1 [II-408]
- Emax [9]: 100 to 200%
- EC50 [1]: 1000 to 10000 nM
- Maximum % activity (with co-corrector) [10]: +++ (≥350)
- EC50 [2]: 1000 to 10000 nM

SMILES: COc1ncc(C2CCC2)cc1CN[C@H]1[C@H](C(C)(C)C)[C@@H](C(=O)O)N(C(=O)[C@@H]2CCCO2)[C@H]1c1cccnc1C1CC1 [II-588]
- Emax [9]: 100 to 200%
- EC50 [1]: 1000 to 10000 nM
- Maximum % activity (with co-corrector) [10]: +++ (≥350)
- EC50 [2]: 1000 to 10000 nM
